Earlier results, collected in patent US20180147141A1, “CHEWING GUM COMPOSITION COMPRISING CANNABINOIDS AND GABAPENTIN” (AXIM Biotechnologies, Inc., priority 2016, published 2018).

Tested on: GABA receptors
Conditions: at concentrations at or below 1 millimolar

Compound: NCC1(CC(=O)O)CCCCC1 [Gabapentin, 1-(aminomethyl)cyclohexaneacetic acid]
- binding to GABA receptors: has not been shown to bind
